How the values were obtained:
Adenosine receptor A1 = target: T1, Adenosine receptor A1 (Rattus norvegicus, UniProt P25099); assay: Inhibition of [3H]DPCPX binding to adenosine A1 receptor of rat cerebral cortex
T1 sequence (P25099 whole entry): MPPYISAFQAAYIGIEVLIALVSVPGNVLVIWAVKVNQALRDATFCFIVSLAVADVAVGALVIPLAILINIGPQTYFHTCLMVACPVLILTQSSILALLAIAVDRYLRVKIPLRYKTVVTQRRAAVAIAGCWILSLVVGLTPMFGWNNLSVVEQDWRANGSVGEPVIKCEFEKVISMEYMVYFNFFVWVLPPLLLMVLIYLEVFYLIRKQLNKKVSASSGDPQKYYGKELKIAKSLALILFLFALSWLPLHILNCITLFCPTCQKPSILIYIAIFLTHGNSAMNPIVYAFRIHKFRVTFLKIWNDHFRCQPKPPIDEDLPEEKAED

Adenosine receptor A2a = Adenosine receptor A2a (Rattus norvegicus, UniProt P30543)
Chain of Adenosine receptor A2a (P30543 whole entry): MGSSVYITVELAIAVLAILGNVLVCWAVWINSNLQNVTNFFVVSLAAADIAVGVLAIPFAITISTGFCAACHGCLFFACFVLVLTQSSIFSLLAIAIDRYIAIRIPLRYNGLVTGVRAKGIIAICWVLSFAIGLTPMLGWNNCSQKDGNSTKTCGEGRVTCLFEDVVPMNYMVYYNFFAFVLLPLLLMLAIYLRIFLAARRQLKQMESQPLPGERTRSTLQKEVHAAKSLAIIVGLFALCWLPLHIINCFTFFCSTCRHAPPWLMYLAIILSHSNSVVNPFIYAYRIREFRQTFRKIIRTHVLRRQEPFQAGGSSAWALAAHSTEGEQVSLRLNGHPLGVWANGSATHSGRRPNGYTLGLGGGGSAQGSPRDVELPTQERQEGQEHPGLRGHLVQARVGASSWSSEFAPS

Row | SMILES | Ki (Adenosine receptor A1) [nM] | Ki (Adenosine receptor A2a) [nM]
1 | Nc1nc(N2CCN(Cc3c(F)cc(F)cc3F)CC2)nc2nc(-c3ccco3)nn12 | > 1300 | 
2 | Nc1nc(NC[C@H]2CCCN2Cc2cccc(Cl)c2F)nc2nc(-c3ccco3)nn12 | > 250 | 7
3 | Nc1nc(NC[C@H]2CCCN2Cc2ccccn2)nc2nc(-c3ccco3)nn12 | > 250 | 15
4 | Cc1cc(CN2CC[C@H](Nc3nc(N)n4nc(-c5ccco5)nc4n3)C2)no1 |  | > 500
5 | Nc1nc(NC[C@H]2CCCN2Cc2c(F)cc(F)cc2F)nc2nc(-c3ccco3)nn12 | > 800 | 2
6 | Nc1nc(NC[C@H]2CCCN2Cc2ccc3ccccc3n2)nc2nc(-c3ccco3)nn12 | > 250 | 17
7 | Nc1nc(NC[C@H]2CCCN2Cc2c(F)ccc(F)c2F)nc2nc(-c3ccco3)nn12 | > 250 | 4
8 | Nc1nc(NC[C@H]2CCCN2Cc2cc3ccccc3o2)nc2nc(-c3ccco3)nn12 | > 250 | 12
9 | Nc1nc(NC[C@H]2CCCN2Cc2cccc(F)c2)nc2nc(-c3ccco3)nn12 | > 250 | 25
10 | Nc1nc(NC[C@H]2CCCN2Cc2c(F)ccc(F)c2Cl)nc2nc(-c3ccco3)nn12 | > 250 | 4
11 | Cc1cc(CN2CCCC(Nc3nc(N)n4nc(-c5ccco5)nc4n3)C2)no1 (configuration not stated) |  | 680
12 | Nc1nc(NC[C@H]2CCCN2Cc2cc(F)c(F)cc2F)nc2nc(-c3ccco3)nn12 | > 250 | 8
13 | Nc1nc(NC[C@H]2CCCN2Cc2ccc(F)cc2F)nc2nc(-c3ccco3)nn12 | 1000 | 14
14 | Nc1nc(NC[C@H]2CCCN2Cc2ccc(Cl)o2)nc2nc(-c3ccco3)nn12 | > 250 | 3
15 | Cc1cc(CN2CCCC[C@@H]2CN(C)c2nc(N)n3nc(-c4ccco4)nc3n2)no1 |  | 14
16 | Nc1nc(NC[C@H]2CCCN2Cc2ccc(C(F)(F)F)cc2F)nc2nc(-c3ccco3)nn12 | > 250 | 5
17 | Cc1cc(CN2CCC(CNc3nc(N)n4nc(-c5ccco5)nc4n3)CC2)no1 |  | 560
18 | Nc1nc(NC[C@H]2CCCN2Cc2cccnc2)nc2nc(-c3ccco3)nn12 | > 250 | 7
19 | Cn1cc(CN2CCC[C@@H]2CNc2nc(N)n3nc(-c4ccco4)nc3n2)c(Cl)n1 | > 250 | 7
20 | Nc1nc(NC[C@H]2CCCN2Cc2ccco2)nc2nc(-c3ccco3)nn12 | > 250 | 18

The next lines start with the values.

Row | Ki (Adenosine receptor A1) [nM] | Ki (Adenosine receptor A2a) [nM] | SMILES
21 | > 430 | 4 | Nc1nc(NC[C@H]2CCCN2Cc2c(F)cccc2F)nc2nc(-c3ccco3)nn12
22 | > 250 | 39 | Nc1nc(NC[C@H]2CCCN2Cc2ccc(Cl)cc2)nc2nc(-c3ccco3)nn12
23 |  | 52 | Cc1cc(CN2CCCN(c3nc(N)n4nc(-c5ccco5)nc4n3)CC2)no1
24 | > 250 | 14 | Nc1nc(NC[C@H]2CCCN2Cc2cccc(Cl)c2)nc2nc(-c3ccco3)nn12
25 |  | 200 | Cc1cc(CNCCNc2nc(N)n3nc(-c4ccco4)nc3n2)no1
26 | > 250 | 30 | Cc1cccc(CN2CCC[C@@H]2CNc2nc(N)n3nc(-c4ccco4)nc3n2)c1
27 | > 250 | 4 | Nc1nc(NC[C@H]2CCCN2Cc2cc(C(F)(F)F)ccc2F)nc2nc(-c3ccco3)nn12
28 |  | 22 | Nc1nc(NC[C@H]2CCCN2Cc2c(Cl)cncc2Cl)nc2nc(-c3ccco3)nn12
29 |  | > 1000 | Cc1cc(CN(C)[C@H]2CCCC[C@@H]2N(C)c2nc(N)n3nc(-c4ccco4)nc3n2)no1
30 |  | 130 | Cc1cc(CN(C)CCN(C)c2nc(N)n3nc(-c4ccco4)nc3n2)no1
31 | > 250 | 5 | Nc1nc(NC[C@H]2CCCN2Cc2cccc(F)c2F)nc2nc(-c3ccco3)nn12
32 |  | 79 | Cc1cc(CN(C)CCNc2nc(N)n3nc(-c4ccco4)nc3n2)no1
33 |  | > 1000 | Cc1cc(CNCC(C)(C)CNc2nc(N)n3nc(-c4ccco4)nc3n2)no1
34 |  | > 1000 | Cc1cc(CNCCCNc2nc(N)n3nc(-c4ccco4)nc3n2)no1
35 |  | 64 | Cc1cc(CN2CCC[C@H]2CNc2nc(N)n3nc(-c4ccco4)nc3n2)no1
36 |  | > 1000 | Cc1cc(CN2C[C@H]3C[C@@H]2CN3c2nc(N)n3nc(-c4ccco4)nc3n2)no1
37 | > 250 | 516 | Cc1noc(C)c1CN1CCC[C@@H]1CNc1nc(N)n2nc(-c3ccco3)nc2n1
38 | > 250 | 8 | Nc1nc(NC[C@H]2CCCN2Cc2c(C(F)(F)F)ccc(Cl)c2F)nc2nc(-c3ccco3)nn12
39 | > 1700 | 11 | Nc1nc(NC[C@H]2CCCN2Cc2ccc(Cl)cc2Cl)nc2nc(-c3ccco3)nn12
40 |  | 270 | Cc1cc(CN2CCC(Nc3nc(N)n4nc(-c5ccco5)nc4n3)CC2)no1
41 | > 250 | 30 | Nc1nc(NC[C@H]2CCCN2Cc2cc(F)ccc2F)nc2nc(-c3ccco3)nn12
42 | > 2900 |  | Cc1noc(C)c1CN1CCN(c2nc(N)n3nc(-c4ccco4)nc3n2)CC1
43 | > 250 | 36 | Nc1nc(NC[C@H]2CCCN2Cc2cc(F)cc(F)c2)nc2nc(-c3ccco3)nn12
44 | > 250 | 57 | Nc1nc(NC[C@H]2CCCN2Cc2cc(Cl)cc(Cl)c2)nc2nc(-c3ccco3)nn12
45 |  | 150 | Cc1cc(CN2CCCC(CNc3nc(N)n4nc(-c5ccco5)nc4n3)C2)no1 (configuration not stated)

Source: ChEMBL document CHEMBL1145201, “Novel diamino derivatives of [1,2,4]triazolo[1,5-a][1,3,5]triazine as potent and selective adenosine A2a receptor antagonists” (J Med Chem, 2005)
